{
  "source": "patent US4588722A",
  "about": "“N-(4-piperidinyl) bicyclic condensed 2-imidazolamine derivatives” (priority 1984, dated 1986)",
  "note": "Counter-ions that a name gives are not always drawn.",
  "data": [
    {"system": "compound 48/80-induced lethality in rats", "experiment": "Protection of rats from compound 48/80-induced lethality", "format": "in vivo, rat (male, inbred Wistar strain)", "conditions": "Rattus norvegicus; test compound subcutaneously or orally (route of each value not given) 1 hour before compound 48/80 0.5 mg/kg intravenously; dose protecting 50% of animals, survival after 4 hours; read-out: Compound 48/80 lethality test in rats-ED50", "excerpt": "PROTECTION OF RATS FROM COMPOUND 48/80-INDUCED LETHALITY\nCompound 48/80, a mixture of oligomers obtained by condensation of 4-methoxy-N-methylbenzeneethanamine and formaldehyde has been described as a potent histamine releasing agent (Int. Arch. Allergy, 13, 336 (1958)). The protection from compound 48/80-induced lethal circulatory collapse appears to be a simple way of evaluating quantitatively the antihistaminic activity of test compounds. Male rats of an inbred Wistar strain, weighing 240-260 g were used in the experiment. After overnight starvation the rats were transferred to conditioned laboratories (temp.=21±1° C., relative humidity=65±5%). The rats were treated subcutaneously or orally with a test compound or with the solvent (NaCl solution, 0.9%). One hour after treatment there was injected intravenously compound 48/80, freshly dissolved in water, at a dose of 0.5 mg/kg (0.2 ml/100 g of body weight). In control experiments, wherein 250 solvent-treated animals were injected with the standard dose of compound 48/80, not more than 2.8% of the animals survived after 4 hours. Survival after 4 hours is therefore considered to be a safe criterion of a protective effect of drug administration.\nSaid ED50 -values are the values in mg/kg body weight at which the tested compounds protect 50% of the tested animals against compound 48/80-induced lethality.", "units": {"ED50": "mg/kg"}, "values": [
      {"compound": "O=c1oc2ccccc2cc1CCN1CCC(Nc2nc3ccccc3n2Cc2ccc(F)cc2)CC1", "note": "[Compound 12, 3-[2-[4-[[1-[(4-fluorophenyl)methyl]-1H-benzimidazol-2-yl]amino]-1-piperidinyl]ethyl]-2H-1-benzopyran-2-one]", "ED50": 0.16},
      {"compound": "CC(=O)Nc1ccccc1C(=O)NCCN1CCC(Nc2nc3ccccc3n2Cc2ccc(F)cc2)CC1", "note": "[Compound 51, 2-(acetylamino)-N-[2-[4-[[1-[(4-fluorophenyl)methyl]-1H-benzimidazol-2-yl]amino]-1-piperidinyl]ethyl]benzamide]", "ED50": 0.16},
      {"compound": "O.O=c1oc2ccccc2cc1CCN1CCC(Nc2nc3ccccc3n2Cc2ccco2)CC1", "note": "[Compound 14, 3-[2-[4-[[1-(2-furanylmethyl)-1H-benzimidazol-2-yl]amino]-1-piperidinyl]ethyl]-2H-1-benzopyran-2-one monohydrate]", "ED50": 0.08},
      {"compound": "COc1ccc(CCN2CCC(Nc3nc4ncccc4n3Cc3ccc(F)cc3)CC2)cc1", "note": "[Compound 2, 1-[(4-fluorophenyl)methyl]-N-[1-[2-(4-methoxyphenyl)ethyl]-4-piperidinyl]-1H-imidazo[4,5-b]pyridin-2-amine]", "ED50": 0.08},
      {"compound": "N#CN=C(NCCN1CCOCC1)NCCN1CCC(Nc2nc3ccccc3n2Cc2ccc(F)cc2)CC1", "note": "[Compound 26, N\"-cyano-N-[2-[4-[[1-[(4-fluorophenyl)methyl]-1H-benzimidazol-2-yl]-aminol]-1-piperidinyl]ethyl]-N'-[2-(4-morpholinyl)ethyl]guanidine monohydrate]", "ED50": 0.16},
      {"compound": "O=c1oc2ccccc2cc1CCN1CCC(Nc2nc3ccccc3n2Cc2ccccn2)CC1", "note": "[Compound 9, 3-[2-[4-[[1-(2-pyridinylmethyl)-1H-benzimidazol-2-yl]amino]-1-piperidinyl]ethyl]-2H-1-benzopyran-2-one dihydrochloride.dihydrate]", "ED50": 0.08},
      {"compound": "Cc1nccn1CCN1CCC(Nc2nc3ccccc3n2Cc2ccc(F)cc2)CC1", "note": "[Compound 20, 1-[(4-fluorophenyl)methyl]-N-[1-[2-(2-methyl-1H-imidazol-1-yl)ethyl]-4-piperidinyl]-1H-benzimidazol-2-amine]", "ED50": 0.31}
    ]}
  ]
}
